Values of other authors, collected in patent US20020013357A1, “Valdecoxib compositions” (priority 1999, published 2002).

- solubility in water: extremely low solubility in water
Compound: Cc1onc(-c2ccccc2)c1-c1ccc(S(N)(=O)=O)cc1 [Valdecoxib, 4-(5-methyl-3-phenyl-4-isoxazolyl)benzenesulfonamide]
